Reference: patent US20240150423A1, “GLP-1 ANALOGUE-MODIFIED DIMERS WITH DIFFERENT CONFIGURATIONS, PREPARATION METHOD THEREOF, AND APPLICATION THEREOF IN TREATMENT OF TYPE II DIABETES” (Nanjing Finepeptide Biopharmaceutical Co.,Ltd, priority 2019, published 2024)

Experiments:
[1] = T2D model treatment: body weight and organ weights; type: in vivo, C57B16/J mice; conditions: 2G3 study, 35 days
Procedure: C57B16/J mice were placed in an SPF-level environment with a standard diet. All experimental operations were performed in accordance with the guidelines of the ethics and uses of experimental animals. […] The NaCl-PB group served as blank control and the model control group served as the T2D model control. They were injected with NaCl-PB solution. The T2D model group was fed with 60 kcal % high-fat diet (D12492, Changzhou SYSE Bio-tech. Co., Ltd., China) until the end of the experiment. Meanwhile the blank control group maintained standard diet. […] These groups were subjected to a 35-day treatment study on the basis of the high-fat diet. • 1. […] The monomeric peptides were dissolved into a saline solution (pH 6.5) for injection. • 2. […] The models were measured blood glucose at the tail and weight weighted every morning at 9 am. […] In the T2D treatment study, all T2D model mice were injected subcutaneously at the back hip in 100 μl per mouse within 30 min. The blood glucose of the experimental mice was measured every five days and the whole measurement was completed within 40 min. […] No. 8-9695-03-201-1, Novo Nordisk company, Switzerland) until the end of the 35-day experiment. • 3.

KM mice = assay: Hypoglycemia test in fasted KM mice at multiples of the low dose; type: in vivo; conditions: 8 and 68 times of low dose, KM mice fasted for 13 hour, within 3 hours after the administration
[2] = high dose 3.378 nmol/100 μL once a day
[3] = low dose 0.375 nmol/100 μL once a day
[4] = medium dose and Liraglutide group 1.126 nmol/100 μL once a day

Question: Which “Weight of organs, Heart” value [1, 2] does the source give for `CCCCCCCCCCCCCCCC(=O)N[C@@H](CCC(=O)NCCCC[C@H](NC(=O)[C@H](C)NC(=O)[C@H](C)NC(=O)[C@H](CCC(N)=O)NC(=O)CNC(=O)[C@H](CCC(=O)O)NC(=O)[C@H](CC(C)C)NC(=O)[C@H](Cc1ccc(O)cc1)NC(=O)[C@H](CSSC[C@H](NC(=O)[C@H](CO)NC(=O)[C@@H](NC(=O)[C@H](CC(=O)O)NC(=O)[C@H](CO)NC(=O)[C@@H](NC(=O)[C@H](Cc1ccccc1)NC(=O)[C@@H](NC(=O)CNC(=O)[C@H](CCC(=O)O)NC(=O)[C@H](C)NC(=O)[C@@H](N)Cc1c[nH]cn1)[C@@H](C)O)[C@@H](C)O)C(C)C)C(=O)N[C@@H](Cc1ccc(O)cc1)C(=O)N[C@@H](CC(C)C)C(=O)N[C@@H](CCC(=O)O)C(=O)NCC(=O)N[C@@H](CCC(N)=O)C(=O)N[C@@H](C)C(=O)N[C@@H](C)C(=O)N[C@@H](CCCCNC(=O)CC[C@H](NC(=O)CCCCCCCCCCCCCCC)C(=O)O)C(=O)N[C@@H](CCC(=O)O)C(=O)N[C@@H](Cc1ccccc1)C(=O)N[C@H](C(=O)N[C@@H](C)C(=O)N[C@@H](Cc1c[nH]c2ccccc12)C(=O)N[C@@H](CC(C)C)C(=O)N[C@H](C(=O)N[C@@H](CCCNC(=N)N)C(=O)NCC(=O)N[C@@H](CCCNC(=N)N)C(=O)NCC(=O)O)C(C)C)[C@@H](C)CC)NC(=O)[C@H](CO)NC(=O)[C@@H](NC(=O)[C@H](CC(=O)O)NC(=O)[C@H](CO)NC(=O)[C@@H](NC(=O)[C@H](Cc1ccccc1)NC(=O)[C@@H](NC(=O)CNC(=O)[C@H](CCC(=O)O)NC(=O)[C@H](C)NC(=O)[C@@H](N)Cc1c[nH]cn1)[C@@H](C)O)[C@@H](C)O)C(C)C)C(=O)N[C@@H](CCC(=O)O)C(=O)N[C@@H](Cc1ccccc1)C(=O)N[C@H](C(=O)N[C@@H](C)C(=O)N[C@@H](Cc1c[nH]c2ccccc12)C(=O)N[C@@H](CC(C)C)C(=O)N[C@H](C(=O)N[C@@H](CCCNC(=N)N)C(=O)NCC(=O)N[C@@H](CCCNC(=N)N)C(=O)NCC(=O)O)C(C)C)[C@@H](C)CC)C(=O)O` [2G3 series 20] here?
Answer: 0.1235 ± 0.02 g

Question: And the “Weight of organs, Left kidney” value [1, 2]?
Answer: 0.1661 ± 0.02 g

Question: And the “Weight of organs, Left testis” value [1, 2]?
Answer: 0.1070 ± 0.01 g

Question: What about the “Weight of organs, Liver” value [1, 2] of the same compound?
Answer: 1.023 ± 0.12b*c* g

Question: What about the “Weight of organs, Lung” value [1, 2] of the same compound?
Answer: 0.1523 ± 0.02 g

Question: And the “Weight of organs, Pancreas” value [1, 2]?
Answer: 0.3202 ± 0.07 g

Question: And the “Weight of organs, Right kidney” value [1, 2]?
Answer: 0.1640 ± 0.02 g

Question: And the “Weight of organs, Right testis” value [1, 2]?
Answer: 0.1060 ± 0.01c* g

Question: And the “Weight of organs, Spleen” value [1, 2]?
Answer: 0.0763 ± 0.01 g

Question: And the “Weight of organs, adipose tissue” value [1, 2]?
Answer: 1.0047 ± 0.30b* g

Question: And the “Weight of organs, Heart” value [1, 3]?
Answer: 0.1199 ± 0.01 g

Question: And the “Weight of organs, Left kidney” value [1, 3]?
Answer: 0.1703 ± 0.02 g

Question: And the “Weight of organs, Left testis” value [1, 3]?
Answer: 0.1065 ± 0.01 g

Question: And the “Weight of organs, Liver” value [1, 3]?
Answer: 1.138 ± 0.18a*c** g

Question: What about the “Weight of organs, Lung” value [1, 3] of the same compound?
Answer: 0.1565 ± 0.02 g

Question: And the “Weight of organs, Pancreas” value [1, 3]?
Answer: 0.3329 ± 0.05b* g

Question: And the “Weight of organs, Right kidney” value [1, 3]?
Answer: 0.1648 ± 0.02 g

Question: What about the “Weight of organs, Right testis” value [1, 3] of the same compound?
Answer: 0.1085 ± 0.01c* g

Question: And the “Weight of organs, Spleen” value [1, 3]?
Answer: 0.0794 ± 0.02 g

Question: What about the “Weight of organs, adipose tissue” value [1, 3] of the same compound?
Answer: 1.2216 ± 0.41a*c* g

Question: And the “Weight of organs, Heart” value [1, 4]?
Answer: 0.1207 ± 0.01 g

Question: What about the “Weight of organs, Left kidney” value [1, 4] of the same compound?
Answer: 0.1750 ± 0.02c* g

Question: What about the “Weight of organs, Left testis” value [1, 4] of the same compound?
Answer: 0.1041 ± 0.01 g

Question: And the “Weight of organs, Liver” value [1, 4]?
Answer: 1.048 ± 0.06a*b*c *** g

Question: What about the “Weight of organs, Lung” value [1, 4] of the same compound?
Answer: 0.1429 ± 0.02 g

Question: And the “Weight of organs, Pancreas” value [1, 4]?
Answer: 0.3115 ± 0.03 g

Question: What about the “Weight of organs, Right kidney” value [1, 4] of the same compound?
Answer: 0.1617 ± 0.01 g

Question: What about the “Weight of organs, Right testis” value [1, 4] of the same compound?
Answer: 0.1052 ± 0.01c* g

Question: And the “Weight of organs, Spleen” value [1, 4]?
Answer: 0.0807 ± 0.01a* g

Question: What about the “Weight of organs, adipose tissue” value [1, 4] of the same compound?
Answer: 1.0369 ± 0.44b* g

Question: What about the hypoglycemia (KM mice) of the same compound?
Answer: did not induce any one of 6 KM mice fasted for 13 hour to produce hypoglycemia
